# Assay results from patent publication US8129532B2, “Amino(oligo)thiophene dyes, preparation thereof, and optical methods of use” (The University of Connecticut, priority 2007, dated 2012).
# Assays:
# [1] = One-photon absorption and emission spectra in multilamellar lipid vesicles, water and ethanol; format: physicochemical; settings: for 1PF Abs. Max / 1PF Em. Max: one photon, soybean multi-lamellar lipid vesicles
# Description: […] The column indicating relative signal change for one-photon fluorescence also lists the excitation light source used and the lower bounds of the long-pass emission detected.
# Absorption and emission spectra were obtained for a series of dyes with different acceptors: pyridinium (PY-1261), quinolinium (PY-212), and acridinium (PY-2240).
# [2] = One-photon fluorescence relative signal change per 100 mV; settings: excitation / long-pass emission (nm) given
# Description: The left-most data columns of Table 1 are the absorption and emission maxima for one photon fluorescence in soybean multi-lamellar lipid vesicles used to mimic the membrane environment. The column indicating relative signal change for one-photon fluorescence also lists the excitation light source used and the lower bounds of the long-pass emission detected.
# [3] = tested on: NIE-115 mouse neuroblastoma; test: Time-dependence (kinetics) of SHG and 2PF signal change after voltage-clamp step; format: cell-based
# Description: For full details of our non-linear imaging microscope, we refer the reader to previously published descriptions. A. C. Millard, P. J. Campagnola, W. Mohler, A. Lewis, and L. M. Loew, “Second Harmonic Imaging Microscopy,” Meth. Enzymol. 361, 47-69 (2003); Millard, A. C., L. Jin, and L. M. Loew, “Second Harmonic Generation Imaging Microscopy with a High Power Ultrafast Fiber Laser,”Commercial and Biomedical Applications of Ultrafast Lasers. 5714-5716, 92-98 (2005); A. C. Millard, L. Jin, M.-D. Wei, J. P. Wuskell, A. Lewis, and L. M. Loew, “Sensitivity of Second Harmonic Generation from Styryl Dyes to Transmembrane Potential,” Biophys. J. 86, 1169-1176 (2004). Our current microscope combines a Fluoview (Olympus) scan-head and an Axiovert (Zeiss) inverted microscope constructed for multiple imaging methodologies including wide-field, one-photon excitation fluorescence imaging, as well as SHG and 2PF imaging. Our laser sources include a Mira (Coherent) Ti:sapphire laser and a Femtopower (Fianium) fiber laser operating at 1064 nm. Millard, A. C., L. Jin, and L. M. Loew, “Second Harmonic Generation Imaging Microscopy with a High Power Ultrafast Fiber Laser,”Commercial and Biomedical Applications of Ultrafast Lasers. 5714-5716, 92-98 (2005). For excitation, we routinely use an IR-Achroplan (Zeiss) 40×, 0.8 NA water-immersion objective though for shorter wavelengths we also use an A-Plan (Zeiss) 40×, 0.65 NA air objective. Fluorescence is imaged (for linear imaging) or collected (for non-linear imaging) back through the excitation objective, while SHG is collected in the forward, transmitted light direction by a condenser, either 0.8 NA or 0.55 NA (Zeiss). For optimal collection, the numerical aperture of the condenser should be at least 1/√2 of the numerical aperture of the excitation objective (L. Moreaux, O. Sandre, S. Charpak, M. Blanchard-Desce, and J. Mertz, “Coherent Scattering in Multi-Harmonic Light Microscopy,” Biophys. J. 80, 1568-1574 (2001); L. Moreaux, O. Sandre, and J. Mertz. “Membrane Imaging by Second Harmonic Generation Microscopy,” J. Opt. Soc. Am. B. 17, 1685-1694 (2000)), though in practice a condenser of slightly lower numerical aperture will often suffice. Since the wavelength of second harmonic light is precisely half that of the excitation light, the choice of filter for SHG imaging is greatly simplified and the primary concern is the blocking of the excitation light that is also transmitted through the sample as well as fluorescence that is emitted forwards.
# NIE-115 mouse neuroblastoma were cultured in DMEM with 10% fetal bovine serum and 1% antibiotic-antimycotic (Invitrogen, Carlsbad, Calif.) in a 60 mm plastic dish (353002, Becton Dickinson, Franklin Lakes, N.J.). The culture was maintained at 37° C. with 5% CO2 for a period of 48 hours prior to experimentation.
# For experimentation the growth medium was replaced with 3 mL of Earle's Balanced Salt Solution (EBSS, Sigma, St. Louis, Mo.) with 20 mM HEPES (Merck Biosciences AG, Laufelfingen, Switzerland). The internal buffer, injected into the patch pipette, was a potassium aspartate (140 mM, Sigma, St. Louis, Mo.), sodium chloride (5 mM, Sigma, St. Louis, Mo.) and HEPES (10 mM) solution at a pH of 7.35. The pH was adjusted with potassium hydroxide and hydrochloric acid.
# For characterizing the voltage-sensitivity of SHG and 2PF, we used a slow (˜0.1 Hz) switching protocol as previously described (A. C. Millard, P. J. Campagnola, W. Mohler, A. Lewis, and L. M. Loew, “Second Harmonic Imaging Microscopy,” Meth. Enzymol. 361, 47-69 (2003); Millard, A. C., L. Jin, and L. M. Loew, “Second Harmonic Generation Imaging Microscopy with a High Power Ultrafast Fiber Laser,” Commercial and Biomedical Applications of Ultrafast Lasers. 5714-5716, 92-98 (2005); A. C. Millard, L. Jin, M.-D. Wei, J. P. Wuskell, A. Lewis, and L. M. Loew, “Sensitivity of Second Harmonic Generation from Styryl Dyes to Transmembrane Potential,” Biophys. J. 86, 1169-1176 (2004)) with a 50 mV step. […]
# [4] = tested on: layer V pyramidal neurons; test: Voltage-sensitive dye imaging of action potentials in intracellularly stained pyramidal neurons in brain slices; format: cell-based, Sprague Dawley rats; settings: for dF/F at 658 nm: backpropagating AP, basal dendrites 80-150 μm from soma, %; for dF/F at 658 nm / S/N ratio at 658 nm: laser spot 658 nm
# Description: Sprague Dawley rats (P21-42) were anesthetized with isoflurane, decapitated, and the brains were removed with the head immersed in ice-cold, artificial cerebrospinal fluid (ACSF), according to an animal protocol approved by the Center for Laboratory Animal Care, University of Connecticut. Brain slices (300 μm) were cut from frontal lobes in the coronal plane. ACSF contained (in mM) 125 NaCl, 26 NaHCO3, 10 glucose, 2.3 KCl, 1.26 KH2PO4, 2 CaCl2 and 1 MgSO4, pH 7.4. Whole-cell recordings were made from visually identified layer V pyramidal neurons on the medial part of the slice. Intracellular solution contained (in mM) 135 K-gluconate, 2 MgCl2, 3 Na2-ATP, 10 Na2-phosphocreatine, 0.3 Na2-GTP and 10 Hepes (pH 7.3, adjusted with KOH). Electrical signals were amplified with Multiclamp 700A and digitized with two input boards: (1) Digidata Series 1322A (Axon Instruments) at 5 kHz, and (2) Neuroplex (RedShirtImaging) at 2.7 kHz sampling rate. Only cells with a membrane potential more hyperpolarized than −50 mV, and action potential amplitudes exceeding 80 mV (measured from the base line) were included in this study. All experiments were performed on layer 5 cortical pyramidal cells at 34° C.
# Blue dyes were stored in ethanol stock solution at −20° C. On the day of the recording blue dyes were dissolved in standard K-gluconate based intracellular solution. A loading pipette was filled with two varieties of the same intracellular solution; one with and one without dye. Dye-free solution was occupying the very tip of the pipette, while the back of the pipette lumen was microloaded with dye-rich solution. The purpose of dye-free solution in the tip of the patch pipette was to prevent dye-leak during the maneuver through brain slice tissue. VSD styryl dyes are lipophilic and bind indiscriminately and irreversibly to all membranes around the neuron of interest. Even a small amount of dye that leaks out of the pipette during the formation of the gigaohm seal, can generate strong fluorescent background. Fluorescent light emanating from surrounding tissue has a devastating effect on dendritic optical signals. Elimination of the background fluorescence is critical for dendritic voltage imaging. How much dye-free solution one should put in the tip depends on time period between the submersion of the patch pipette into the recording chamber and formation of the gigaohm seal. The faster one can perform this maneuver the less dye-free solution she needs to achieve optimal staining.
# Blue VSD were injected at room temperature for 25-60 minutes. The filling pipette was carefully pulled out (outside-out patch) and brain slices were left to incubate for 20-120 minutes at room temperature. Just before optical recordings the cells were re-patched with dye-free pipette at the physiological temperature (34° C.).
# Voltage-sensitive dye imaging was performed on a Zeiss Axioskope 2FS microscope equipped with NeuroCCD camera (RedShirtImaging). We used Zeiss 40× objective IR-Achroplan 0.80 W. The size of the square visual field captured by NeuroCCD camera was 384×384 um. In the place of the arc lamp (normally used for epi-illumination), we inserted a 200 μm fiber optic guide with a collimator. Laser beam was focused on the other side of the fiber optic guide using a microscope objective-like lens. This arrangement produced a motionless spot of laser light (˜25 μm in diameter) at the object plane. An illuminated section of the brain slice, projected onto the NeuroCCD camera, covered approximately 25 pixels when used with 40× objective lens. At this magnification, one pixel sampled a 4.8×4.8 square in the object plane. A region of interest (ROI) was brought into the laser spot using X-Y microscope platform. The laser beam was interrupted by an electro-programmable shutter (Uniblitz®). Attention was made to limit the exposure time during the recording and positioning of the neuron.
SMILES,1PF Abs. Max [1],1PF Em. Max [1],1PF Change (ΔF/F-100 mv) [2],SHG Kinetics (exponential time constant) ([3]; time resolution 5 ms),Absorbance ethanol [1],Emission ethanol [1],Absorbance MLV ([1]; multilamellar lipid vesicles),Absorbance water [1],dF/F at 658 nm [4],S/N ratio at 658 nm [4],"SHG kinetics, in words [3]","2PF signal sensitivity detected between 750-850 nm ([3]; kinetics data, FIG. 3c)",2PF kinetics (time of signal change) ([3]; time resolution 5 ms),Emission MLV ([1]; multilamellar lipid vesicles),polarity of optical signal at 532 nm excitation [4],polarity of optical signal at 658 nm excitation [4],"average amplitude of AP-associated optical signal, 658 nm excitation ([4]; n=4 cells, N=24 measurements)","average size of AP-associated optical signal, 532 nm excitation ([4]; same 4 cells)",average amplitude ratio of AP-associated signal at two wavelengths (658/532 nm) ([4]; same cell and region of interest)
CC[N+](CC)(CC)CCC[n+]1ccc(/C=C/c2ccc(-c3ccc(N4CCCC4)s3)s2)cc1 [PY-1274],551 nm,691 nm,5.0E−002; 620/>715 ΔF/F-100 mv,–,–,–,–,–,–,–,–,–,–,–,–,–,–,–,–
CCN(CC)c1ccc(-c2ccc(-c3ccc(/C=C/c4cc[n+](CCC[N+](CC)(CC)CC)cc4)s3)s2)s1 [PY-1268],535 nm,714 nm,4.2E−002; 640/>715 ΔF/F-100 mv,<5 ms,588 nm,–,535 nm,508 nm,5.89 ± 3.41%,4.44 ± 0.75,instantaneously,4.28 %/50 mV,≤ 5 ms,–,–,–,–,–,–
CN(C)c1ccc(/C=C/c2ccc(/C=C/c3cc[n+](CCC[N+](C)(C)C)c4ccccc34)o2)cc1 [JPW-3080],–,–,–,–,630 nm,896 nm,569 nm,554 nm,5.13 ± 1.20%,6.20 ± 2.29,–,–,–,730 nm,negative optical signals,positive,4.13±0.96 % ΔF/F,0.97±0.26 % ΔF/F,4.39±1.07

# Now from value to compound, other results behind:
1PF Abs. Max [1],1PF Em. Max [1],SMILES,1PF Change (ΔF/F-100 mv) [2],SHG Kinetics (exponential time constant) ([3]; time resolution 5 ms),Absorbance ethanol [1],Emission ethanol [1],Absorbance MLV ([1]; multilamellar lipid vesicles),Absorbance water [1],dF/F at 658 nm [4],S/N ratio at 658 nm [4],"SHG kinetics, in words [3]","2PF signal sensitivity detected between 750-850 nm ([3]; kinetics data, FIG. 3c)",2PF kinetics (time of signal change) ([3]; time resolution 5 ms),Emission MLV ([1]; multilamellar lipid vesicles),polarity of optical signal at 532 nm excitation [4],polarity of optical signal at 658 nm excitation [4],"average amplitude of AP-associated optical signal, 658 nm excitation ([4]; n=4 cells, N=24 measurements)","average size of AP-associated optical signal, 532 nm excitation ([4]; same 4 cells)",average amplitude ratio of AP-associated signal at two wavelengths (658/532 nm) ([4]; same cell and region of interest)
528 nm,670 nm,"CCCCN(CCCC)c1ccc2cc(/C=C/c3cc[n+](CCC[N+](C)(C)C)c4ccccc34)ccc2c1.[Br-].[Br-] [di-4-ANEQPQ, reference compound]",1.2E−001; 610/>665 ΔF/F-100 mv,76 ± 13 ms,–,–,–,–,–,–,–,–,–,–,–,–,–,–,–
539 nm,708 nm,"CCCCN(CCCC)c1ccc2cc(/C=C/C=C/c3cc[n+](CCC[N+](C)(C)C)c4ccccc34)ccc2c1.[Br-].[Br-] [di-4-ANBDQPQ, Di-4-ANBDQPQ, reference compound]",2.0E−001; 618/>715 ΔF/F-100 mv,<5 ms,603 nm,818 nm,539 nm,552 nm,1.23 ± 0.66%,4.97,–,–,–,–,–,–,–,–,–
555 nm,688 nm,CCC[N+](CCC)(CCC)CCC[n+]1ccc(/C=C/c2ccc(-c3ccc(N(CC)CC)s3)s2)cc1 [PY-1278],7.9E−002; 640/>715 ΔF/F-100 mv,–,–,–,–,–,–,–,instantaneous,–,–,–,–,–,–,–,–
504 nm,655 nm,"CCCCN(CCCC)c1ccc2cc(/C=C/C=C/C=C/c3cc[n+](CCC[N+](C)(C)C)c4ccccc34)ccc2c1.[Br-].[Br-] [di-4-ANHTQPQ, reference compound]",5.4E−002; 630/>715 ΔF/F-100 mv,34 ± 3 ms,–,–,–,–,–,–,–,–,–,–,–,–,–,–,–
